From patent publication US4451650A, “Pyrido[4,3-b][1,4]oxazines and pyrido[4,3-b][1,4]thiazines” (Southern Research Institute, priority 1982, dated 1984)

Key:
[1] = system: lymphoid leukemia L1210 cells; test: Inhibition of proliferation of cultured lymphoid leukemia L1210 cells (48 hours); assay type: cell-based; settings: read-out: L1210 ID50 (concentration of agent that inhibits proliferation of cultured lymphoid leukemia L1210 cells to 50% control growth during 48 hours)
Description: ^a Concentration of agent that inhibits proliferation of cultured
lymphoid leukemia L1210 cells to 50% control growth during 48 hours
[Wheeler, G. P., Bowdon, B. J., Werline, J. A., Adamson, D. J., and
Temple, C., Jr., Cancer Research, 1982, 42, 791].

[2] = system: lymphoid leukemia L1210 cells; test: Mitotic index (fraction of cells in mitosis) of cultured lymphoid leukemia L1210 cells, 12 hours exposure; assay type: cell-based; settings: Mus musculus, exposure period of 12 hours, read-out: L1210 MI0.5 (concentration of agent that causes a mitotic index of 0.5)
Description: ^b Concentration of agent that causes a mitotic index (fraction of
cells in mitosis divided by total cells) of 0.5 for cultured lymphoid
leukemia L1210 cells during an exposure period of 12 hours [Wheeler, G.
P., Bowden, B. J., Werline, J. A., Adamson, D. J., and Temple, C., Jr.,

[3] = system: Lymphocytic leukemia P388; test: Increase in life span, lymphocytic leukemia P388, 10^6 tumor cell implant, i.p.; assay type: in vivo; settings: Mus musculus, P388, ip, schedule 1-5, read-out: P388 % ILS (increase in life span at the highest nontoxic dose)
Description: ^c Lymphocytic leukemia P388.
^d Increase in life span at the highest nontoxic dose.

IC50 [1] [nM] | Compound | EC (mitotic index 0.5) [2] [µM] | ILS at 300 mg/kg [3] [%] | also measured
110 | CCOC(=O)Nc1cc2c(c(N)n1)N=C(c1ccccc1)C(C)O2 (stereo not shown) [b] | 0.49 |  | ILS at 100 mg/kg [3]: 50%
880 | CCOC(=O)Nc1cc2c(c(N)n1)N=C(c1ccccc1)C(c1ccccc1)O2 (stereo not shown) [c] | 3 |  | ILS at 200 mg/kg [3]: 2%
> 300 | CCOC(=O)Nc1cc2c(c(N)n1)N=C1c3ccccc3CCC1O2 (stereo not shown) [d] |  | 32 | 
> 3000 | CCOC(=O)Nc1cc2oc(=O)c(-c3ccccc3)nc2c(N)n1 [e] |  | 0 | 
> 3000 | CCOC(=O)Nc1cc2c(c(N)n1)N=C(c1cc(OC)c(OC)c(OC)c1)CO2 [g] |  | 0 | 
> 3000 | CCOC(=O)Nc1cc2c(c(N)n1)N=C(c1ccc([N+](=O)[O-])cc1)CO2 [i] |  | 0 | 
6100 | CCOC(=O)Nc1cc2c(c(N)n1)N=C(c1ccccc1)CS2 [j] | 10 | 0 | 
1600 | CCOC(=O)Nc1cc2c(c(N)n1)N=C(c1ccccc1)C(C)S2 (stereo not shown) [k] | 9.6 |  | ILS at 150 mg/kg ([3]; 150 mg/kg): 10%
> 10000 | CCOC(=O)Nc1cc2c(c(N)n1)N=C(c1ccccc1)C(C)(C)S2 [l] |  |  | 
530 | CCOC(=O)Nc1cc2c(c(N)n1)N=C(c1cccc(OC)c1)CS2 [m] | 2 |  | ILS at 75 mg/kg ([3]; 75 mg/kg): 3%
340 | CCOC(=O)Nc1cc2c(c(N)n1)N=C(c1ccc(OC)cc1)CS2 [n] | 4.9 | 3 | 
580 | CCOC(=O)Nc1cc2c(c(N)n1)N=C(c1ccc3ccccc3c1)CS2 [o] | 3 | 5 | 
310 | CCOC(=O)Nc1cc2c(c(N=CN(C)C)n1)N=C(c1ccccc1)CO2 [p] | 0.78 |  | 
2200 | CCOC(=O)Nc1cc2c(c(NC(=O)CBr)n1)N=C(c1ccccc1)CO2 [q] | 11 |  | 

Compound | IC50 [1] [nM] | EC (mitotic index 0.5) [2] [µM] | ILS at 300 mg/kg [3] [%] | also measured
CCOC(=O)Nc1cc2c(c(N)n1)N=C(c1ccccc1)CO2 [a] | 225 | 0.56 |  | ILS at 100 mg/kg [3]: 44%; ILS at 200 mg/kg [3]: 80%
CCOC(=O)Nc1cc2c(c(N)n1)N=C(c1cccc(OC)c1)CO2 [f] | 52 | 0.1 |  | ILS at 50 mg/kg ([3]; 50 mg/kg): 73%
CCOC(=O)Nc1cc2c(c(N)n1)N=C(c1ccc(Cl)cc1)CO2 [h] | > 3000 |  | 0 | 
